Reference: ChEMBL document CHEMBL1149783, “New stereoselective titanium reductive amination synthesis of 3-amino and polyaminosterol derivatives possessing antimicrobial activities” (2008)
Values after ≈ are worked out from the molar mass of the structure shown.

Columns and labels:
Assay type in all cases: functional
[1] = test system: Saccharomyces cerevisiae; experiment: Antifungal activity against Saccharomyces cerevisiae CIP 28383 by broth microdilution method
[2] = test system: Candida albicans; experiment: Antifungal activity against Candida albicans CIP 1180-79 by broth microdilution method
[3] = test system: Staphylococcus aureus; experiment: Antibacterial activity against Staphylococcus aureus CIP 4.83 by broth microdilution method
[4] = test system: Enterococcus faecalis; experiment: Antibacterial activity against Enterococcus faecalis CIP 103015 by broth microdilution method
[5] = test system: Escherichia coli; experiment: Antibacterial activity against Escherichia coli CIP 54127 by broth microdilution method

Row | SMILES | MIC [1] [µg/mL] | MIC [2] [µg/mL] | MIC [3] [µg/mL] | MIC [4] [µg/mL] | MIC [5] [µg/mL]
1 | CC(C)CCCC(C)C1CCC2C3CCC4CC(NCCCNCCCCNCCCN)CCC4(C)C3CCC12C (stereo not drawn) | 6.25 (≈ 10.9 µM) | 50 (≈ 87.3 µM) | 3.12 (≈ 5.45 µM) | 12.5 (≈ 21.8 µM) | > 50
2 | CNC1CCC2(C)C(CCC3C2CCC2(C)C(C(C)CCCC(C)C)CCC32)C1 (stereo not drawn) | 12.5 (≈ 31.1 µM) | 12.5 (≈ 31.1 µM) | 6.25 (≈ 15.6 µM) | 6.25 (≈ 15.6 µM) | > 50
3 | CC(C)CCCC(C)C1CCC2C3CCC4CC(N)CCC4(C)C3CCC12C (stereo not drawn) | > 50 | 50 (≈ 129 µM) | > 50 | 50 (≈ 129 µM) | > 50
4 | CC(C)CCC[C@@H](C)[C@H]1CC[C@H]2[C@@H]3CC=C4C[C@@H](NCCCNCCCCNCCCN)CC[C@]4(C)[C@H]3CC[C@]12C | > 50 | > 50 | 6.25 (≈ 10.9 µM) | > 50 | > 50
5 | CC(C)CCC[C@@H](C)[C@H]1CC[C@H]2[C@@H]3CC[C@H]4C[C@@H](NCCCN)CC[C@]4(C)[C@H]3CC[C@]12C | > 50 | > 50 | > 50 | > 50 | > 50
6 | CC(C)CCC[C@@H](C)[C@H]1CC[C@H]2[C@@H]3CC=C4C[C@@H](NCCN)CC[C@]4(C)[C@H]3CC[C@]12C | > 50 | > 50 | 12.5 (≈ 29.2 µM) | 25 (≈ 58.3 µM) | 12.5 (≈ 29.2 µM)
7 | CC(C)CCC[C@@H](C)[C@H]1CC[C@H]2[C@@H]3CC[C@H]4C[C@@H](NCCCCN)CC[C@]4(C)[C@H]3CC[C@]12C | 50 (≈ 109 µM) | 25 (≈ 54.5 µM) | 12.5 (≈ 27.2 µM) | > 50 | > 50
8 | CC(C)CCC[C@@H](C)[C@H]1CC[C@H]2[C@@H]3CC[C@H]4C[C@@H](NCCN)CC[C@]4(C)[C@H]3CC[C@]12C | 50 (≈ 116 µM) | > 50 | 12.5 (≈ 29 µM) | > 50 | > 50
9 | CC(C)CCC[C@@H](C)[C@H]1CC[C@H]2[C@@H]3CC=C4C[C@@H](NCCCN)CC[C@]4(C)[C@H]3CC[C@]12C | > 50 | > 50 | 6.25 (≈ 14.1 µM) | 6.25 (≈ 14.1 µM) | 6.25 (≈ 14.1 µM)
10 | CN[C@H]1CC[C@@]2(C)C(=CC[C@H]3[C@@H]4CC[C@H]([C@H](C)CCCC(C)C)[C@@]4(C)CC[C@@H]32)C1 | 3.12 (≈ 7.82 µM) | > 50 | 6.25 (≈ 15.6 µM) | 6.25 (≈ 15.6 µM) | > 50
11 | CC(C)CCC[C@@H](C)[C@H]1CC[C@H]2[C@@H]3CC[C@H]4C[C@@H](NCCCCCN)CC[C@]4(C)[C@H]3CC[C@]12C | 25 (≈ 52.9 µM) | 50 (≈ 106 µM) | 6.25 (≈ 13.2 µM) | 50 (≈ 106 µM) | > 50
12 | CC(C)[C@@H](CC[C@@H](C)[C@H]1CC[C@H]2[C@@H]3[C@H](O)C[C@H]4C[C@@H](NCCCNCCCCNCCCN)CC[C@]4(C)[C@H]3CC[C@]12C)OS(=O)(=O)O.Cl.Cl.Cl.Cl [TRODUSQUEMINE HYDROCHLORIDE] |  | 4 | 1 |  | 4

Further lines, results first:

Row | MIC [1] [µg/mL] | MIC [2] [µg/mL] | MIC [3] [µg/mL] | MIC [4] [µg/mL] | MIC [5] [µg/mL] | SMILES
13 | > 50 | > 50 | > 50 | > 50 | > 50 | CC(C)CCCC(C)C1CCC2C3CCC4CC(NCCCCCCCN)CCC4(C)C3CCC12C (stereo not drawn)
14 | > 50 | > 50 | > 50 | > 50 | > 50 | CC(C)CCC[C@@H](C)[C@H]1CC[C@H]2[C@@H]3CCC4=C[C@@H](NCCCCCCCCCN)CC[C@]4(C)[C@H]3CC[C@]12C
15 | > 50 | > 50 | 1.56 (≈ 3.42 µM) | 6.25 (≈ 13.7 µM) | 6.25 (≈ 13.7 µM) | CC(C)CCC[C@@H](C)[C@H]1CC[C@H]2[C@@H]3CC=C4C[C@@H](NCCCCN)CC[C@]4(C)[C@H]3CC[C@]12C
16 | > 50 | > 50 | > 50 | > 50 | > 50 | CC(C)CCC[C@@H](C)[C@H]1CC[C@H]2[C@@H]3CCC4=C[C@@H](NCCCCCCN)CC[C@]4(C)[C@H]3CC[C@]12C
17 | > 50 | > 50 | > 50 | > 50 | > 50 | CC(C)CCC[C@@H](C)[C@H]1CC[C@H]2[C@@H]3CCC4=C[C@@H](NCCCCCCCN)CC[C@]4(C)[C@H]3CC[C@]12C
18 | 12.5 (≈ 31.3 µM) | 12.5 (≈ 31.3 µM) | 1.56 (≈ 3.9 µM) | 25 (≈ 62.5 µM) | > 50 | CN[C@@H]1C=C2CC[C@H]3[C@@H]4CC[C@H]([C@H](C)CCCC(C)C)[C@@]4(C)CC[C@@H]3[C@@]2(C)CC1
19 | > 50 | > 50 | 12.5 (≈ 29.2 µM) | > 50 | > 50 | CC(C)CCC[C@@H](C)[C@H]1CC[C@H]2[C@@H]3CCC4=C[C@@H](NCCN)CC[C@]4(C)[C@H]3CC[C@]12C
20 | > 50 | > 50 | > 50 | > 50 | > 50 | CC(C)CCC[C@@H](C)[C@H]1CC[C@H]2[C@@H]3CC[C@H]4C[C@@H](NCCCCCCN)CC[C@]4(C)[C@H]3CC[C@]12C
21 | > 50 | > 50 | 6.25 (≈ 13.3 µM) | 6.25 (≈ 13.3 µM) | > 50 | CC(C)CCC[C@@H](C)[C@H]1CC[C@H]2[C@@H]3CCC4=C[C@@H](NCCCCCN)CC[C@]4(C)[C@H]3CC[C@]12C
22 | > 50 | 25 (≈ 56.5 µM) | 12.5 (≈ 28.2 µM) | > 50 | > 50 | CC(C)CCC[C@@H](C)[C@H]1CC[C@H]2[C@@H]3CCC4=C[C@@H](NCCCN)CC[C@]4(C)[C@H]3CC[C@]12C
23 | 12.5 (≈ 27.4 µM) | 6.25 (≈ 13.7 µM) | 6.25 (≈ 13.7 µM) | 6.25 (≈ 13.7 µM) | 25 (≈ 54.7 µM) | CC(C)CCC[C@@H](C)[C@H]1CC[C@H]2[C@@H]3CCC4=C[C@@H](NCCCCN)CC[C@]4(C)[C@H]3CC[C@]12C
24 | > 50 | > 50 | > 50 | > 50 | > 50 | CC(C)CCC[C@@H](C)[C@H]1CC[C@H]2[C@@H]3CCC4=C[C@@H](NCCCCCCCCCCCCN)CC[C@]4(C)[C@H]3CC[C@]12C
25 | > 50 | > 50 | > 50 | > 50 | > 50 | CC(C)CCC[C@@H](C)[C@H]1CC[C@H]2[C@@H]3CCC4=C[C@@H](NCCCCCCCCCCN)CC[C@]4(C)[C@H]3CC[C@]12C
26 | > 50 | 50 (≈ 87.6 µM) | 6.25 (≈ 10.9 µM) | > 50 | 50 (≈ 87.6 µM) | CC(C)CCC[C@@H](C)[C@H]1CC[C@H]2[C@@H]3CCC4=C[C@@H](NCCCNCCCCNCCCN)CC[C@]4(C)[C@H]3CC[C@]12C
27 | > 50 | > 50 | > 50 | > 50 | > 50 | CC(C)CCC[C@@H](C)[C@H]1CC[C@H]2[C@@H]3CCC4=C[C@@H](NCCCCCCCCN)CC[C@]4(C)[C@H]3CC[C@]12C
